Measurements reported in ChEMBL document CHEMBL1128991, “Trishomocubanes, a new class of selective and high affinity ligands for the sigma binding site” (Bioorg Med Chem Lett, 1996).

Assay: Binding affinity towards NMDA receptor ion channel (PCP site) was determined

SMILES	Ki [µM]
c1ccc(CNC2C3C4CC5C6C4C2C6C2(OCCO2)C53)cc1 (stereo unspecified)	> 10
OC12C3C4CC5C6C4C1C6C(C53)N2Cc1cccc(Br)c1 (stereo unspecified)	> 10
Brc1cccc(CNC2C3C4CC5C6C4C2C6C2(OCCO2)C53)c1 (stereo unspecified)	> 10
Ic1cccc(CNC2C3C4CC5C6C4C2C6C2(OCCO2)C53)c1 (stereo unspecified)	> 10
Ic1ccc(CNC2C3C4CC5C6C4C2C6C2(OCCO2)C53)cc1 (stereo unspecified)	> 10
OC12C3C4CC5C6C4C1C6C(C53)N2Cc1ccccc1 (stereo unspecified)	> 10
